{"source": "patent US12286401B2", "about": "“Small molecules that sensitize HIV-1 infected cells to antibody dependent cellular cytotoxicity” (THE TRUSTEES OF THE UNIVERSITY OF PENNSYLVANIA, priority 2018, dated 2025)", "assay_type_in_all_cases": "cell-based", "key": {"[1]": {"tested_on": "HIV-1CH58TF", "experiment": "Virus neutralization in TZM-bl assay", "conditions": "Human immunodeficiency virus 1; TZM-bl cells; read-out: IC50, inhibition of HIV-1CH58TF infection", "protocol": "(§1) To evaluate the direct virus-neutralizing ability of the analogs, I, HIV-1CH58TF was incubated with indicated amounts of different compounds or DMSO for 1 hour at 37° C., then added to TZM-bl cells. After incubation for 48 h at 37° C., luciferase activity was measured. Relative infectivity was calculated as the percentage of the value seen in the absence of compound. To measure the ability of (S)-MCG-IV-210 to sensitize viral particles to neutralization by otherwise non-neutralizing 17b (FIG. 15F), HIV-1CH58TF was incubated with the indicated amounts of 17b in the presence of 0.5 μM (+)-BNM-III-170, 20 μM (S)-MCG-IV-210 or DMSO for 1 hour at 37° C., then added to TZM-bl cells. After incubation for 48 h at 37° C., luciferase activity was measured.\nAs a positive control, (+)-BNM-III-170 was used, which has been reported to inhibit HIV-1 infection at low micromolar concentrations. See, Melillo, ACS Med Chem Lett 7:330-334. […] While all tested MCG analogs also neutralized HIV-1CH58TF, they did so with only modest potency (FIG. 15E)."}, "[2]": {"tested_on": "primary CD4 T cells infected with HIV-1CH58TF", "experiment": "Cell surface staining with A32-AF647 (State 2A, cluster A exposure)", "conditions": "50 μM compound", "protocol": "FIGS. 14A-14D show the data for the cell surface staining with A32-AF647. Cells were then incubated with A32-AF647 together with 5 μg/ml 17b (FIG. 14A, FIG. 14B, 14C) or 1:1000 diluted HIV+ plasma from infected individuals (FIG. 14D) in the presence of DMSO, 50 μM (+)-BNM-III-170 or 50 μM (S)-MCG-IV-210 at 37° C. Mean fluorescence intensity (MFI) of A32-AF647 was measured by flow cytometry. FIG. 14E is a bar graph showing data for the VBE assay, comparing the binding capacity of different Abs, the relative ratio of the luciferase activity to the luciferase activity of 2G12. Data shown are the mean±SD of at least three independent experiments. Statistical significance was evaluated using Mann-Whitney unpaired t test (FIG. 14C) or Wilcoxon paired t test (FIG. 14D) (*, P<0.05; ns, not significant.).\nTo evaluate whether (S)-MCG-IV-210 was able to stabilize State 2A, primary CD4+ T cells were infected with the primary CH58 transmitted/founder (CH58 TF) virus and evaluated the exposure of the cluster A region with an Alexa-Fluor 647-conjugated A32 (A32-AF647) antibody in the presence or absence of CD4mc and the CoRBS 17b Ab, as reported. See, Richard, 2016, EbioMedicine doi:10.1016/j.ebiom.2016.09.004. […] Mean fluorescence intensity (MFI) of A32-AF647 was measured by flow cytometry. […]"}, "[3]": {"tested_on": "HIV-1CH58TF Env on virions", "experiment": "Virus-based ELISA (VBE) virus capture assay"}, "[4]": {"tested_on": "uninfected bystander CD4+ T cells", "experiment": "Uninfected bystander CD4+ T cell recognition and ADCC", "conditions": "50 μM", "protocol": "FIG. 17A is a dot plot showing the ability of HIV+plasma to recognize uninfected bystander cells in the presence of 50 μM (+)-BNM-III-170 or (S)-MCG-IV-210 was evaluated by FACS. FIG. 17B is a dot showing the use of the uninfected eFluor 450+ cells as target cells for ADCC with autologous PBMC and 5 HIV+ plasma in the presence of 50 μM (+)-BNM-III-170 or (S)-MCG-IV-210. Statistical significance was evaluated using a paired t test (*, P<0.05; ****, P<0.0001; ns, not significant).\nThe capacity of (S)-MCG-IV-210 to protect uninfected bystander CD4+ T cells from ADCC responses was evaluated. Briefly, primary CD4+ T cells were infected with the NL4-3.ADA.GFP WT virus. The cell proliferation dye eFluor-450 was used to stain uninfected autologous CD4+ T cells, which were then added to the infected cells (eFluor-450-cells) and co-cultured for 72 h. The ability of HIV+ plasma to recognize uninfected bystander cells in the presence of 50 μM (+)-BNM-III-170 or (S)-MCG-IV-210 was evaluated by FACS (FIG. 17A). These uninfected eFluor 450+ cells were also used as target cells for ADCC with autologous PBMC and 5 HIV+ plasma in the presence of 50 μM (+)-BNM-III-170 or (S)-MCG-IV-210 (FIG. 17B)."}, "[5]": {"tested_on": "HIV-1CH58TF", "experiment": "Sensitization of viral particles to neutralization by 17b (TZM-bl)", "conditions": "sub-inhibitory concentrations (20 μM (S)-MCG-IV-210)", "protocol": "as §1\nAnother well-documented antiviral property of CD4mc is their capacity to sensitize viral particles to neutralization by otherwise non-neutralizing antibodies. See, Madani, 2018, Nat. Commun. 9:2363; Madani, 2014, J. Virol. 88:6542-6555; and Madani, 2016, J. Virol., 90:5031-5046. (S)-MCG-IV-210 was tested to determine if this compound shared this property."}}, "note": "pIC50: −log10 of the molar value."}
{"smiles": "NCCNC(=O)N1CCC[C@H](C(=O)Nc2ccc(Cl)c(F)c2)C1", "note": "[(S)-MCG-IV-210]", "values": [{"measurement": "pIC50", "setting": "[1]", "value": 5.16}, {"measurement": "recognition of infected cells by A32-AF647 with addition of 17b", "setting": "[2]; 5 μg/ml 17b, 37° C.", "value": "significantly enhanced"}, {"measurement": "binding of infected cells by A32-AF647 in the presence of HIV+ plasma", "setting": "[2]; 1:1000 diluted HIV+ plasma", "value": "significantly enhanced binding"}, {"measurement": "17b-mediated capture of virions", "setting": "[3]; 50 μM compound", "value": "dramatic increase"}, {"measurement": "virion capture by the A32 and C11 Cluster A antibodies", "setting": "[3]; 50 μM compound in combination with 5 μg/ml 17b", "value": "permit virion capture"}, {"measurement": "recognition of bystander cells by HIV+ plasma", "setting": "[4]; added at the time of co-culture", "value": "significantly decreased"}, {"measurement": "ADCC-mediated killing of uninfected bystander CD4+ T cells", "setting": "[4]; autologous PBMC and 5 HIV+ plasma", "value": "protecting uninfected bystander CD4+ T cells from ADCC-mediating killing"}, {"measurement": "neutralization by 17b of viral particles sensitized with compound", "setting": "[5]", "value": "potently neutralized"}]}
